Assay results as given in patent US20180333371A1, “CURCUMIN AND RESVERATROL FOR CHRONIC INFLAMMATION” (DSM IP Assets B.V., priority 2015, published 2018).

How the values were obtained:
Assay type in all cases: cell-based, Sprague Dawley rat
[1] = system: PGE2 release from primary microglia; assay: LPS-stimulated PGE2 release by primary microglia (ELISA); details: for effect on PGE2 release: FIG. 2A
Description: (§1) Microglial Harvesting and Culture. All experiments involving animals were approved by the Animal Care and Use Committee established at Bolder Biopath, Inc. (Boulder, Colo.). Primary microglial cultures were derived from neocortical tissue of E22 Sprague Dawley rat pups taken from timed-pregnant dams (Charles River) by Caesarean section. Briefly, the pup brain cortices were isolated in Hibernate EB (Brain Bits; Springfield, Ill.). The samples were then transferred to Hibernate E (without Ca; Brain Bits; Springfield, Ill.) and washed twice with fresh Hibernate E (−Ca). The tissue was next digested in Hibernate E (−Ca) containing 0.5% trypsin (Sigma) for 15 min at 37° C.). The overlying solution was removed, and the trypsin reaction was quenched by washing the settled tissue with Hibernated E (—Ca) containing 20% heat-inactivated fetal bovine serum (FBS; Hyclone).
The tissue was triturated into single cells, and the suspension was filtered through a 70-μm cell strainer. Cell numbers and viability were consistently greater than 95% as determined using trypan blue (0.4%; Fisher Scientific) and a Countess automated cell counter (Life Technologies, Grand Island, N.Y.). Cells were seeded into T-75 flasks (VWR) at 8×10^6 cells/flask in HiGlutaXL Dulbecco's Modified Eagle Medium (DMEM, 4.5 g/L glucose, plus glutamine; HyClone) containing 100 μg/mL penicillin, 100 μg/mL streptomycin, 0.5 ng/mL amphotericin (CellnTec) and 1 mM sodium pyruvate. The media was changed on day 3 in vitro, and the cells were fed every 4-5 days while in the flasks. At day 14 in vitro, mouse granulocyte macrophage colony stimulating factor (mGM-CSF; R&D Systems; Minneapolis, Minn.) was added at a final concentration of 5 ng/mL to stimulate microglial differentiation.
(§2) Cell Stimulation and Cytokine Assays. […] The concentration of prostaglandin E2 (PGE2) in the supernatant was measured by ELISA (Cayman Chemical). The concentrations of tumor necrosis factor-α (TNF-α), interleukin-1β (IL-1β) and interleukin-6 (IL-6) in the supernatant were determined by multiplex ELISA (Quansys Biosciences; Logan, Utah). […]

[2] = system: IL-1β release by primary microglia; assay: LPS-stimulated IL-1β release by primary microglia (multiplex ELISA); details: 0-250 μM, FIG. 2C
Description: as §1, with “The overlying solution was removed, and the trypsin reaction was quenched by washing the settled tissue with Hibernated E (—Ca) containing 20% heat-inactivated fetal bovine serum (FBS; Hyclone).” left out
(§3) The tissue was triturated into single cells, and the suspension was filtered through a 70-μm cell strainer. Cell numbers and viability were consistently greater than 95% as determined using trypan blue (0.4%; Fisher Scientific) and a Countess automated cell counter (Life Technologies, Grand Island, N.Y.). […]
as §2

[3] = system: TNF-α release by primary microglia; assay: LPS-stimulated TNF-α release by primary microglia (multiplex ELISA); details: 0-250 μM, FIG. 2B
Description: as §1, with “The overlying solution was removed, and the trypsin reaction was quenched by washing the settled tissue with Hibernated E (—Ca) containing 20% heat-inactivated fetal bovine serum (FBS; Hyclone).” left out
as §3, §2

[4] = system: PGE2 release from primary microglia; assay: Synergism analysis (median-effect principle, combination index, ComboSyn) of PGE2 release inhibition

- IC50 ([1]; Rattus norvegicus, FIG. 3): 2250 nM
SMILES: Oc1ccc(C=Cc2cc(O)cc(O)c2)cc1 [Resveratrol, resveratrol]
- effect on PGE2 release ([1]; 75 μM): significantly inhibited
- effect on PGE2 release ([1]; 250 μM): significantly inhibited
- significant effects on IL-1β release [2]: not detected
- significant effects on TNF-α release [3]: not detected
- Dose reduction index (DRI) ([4]; in combination resveratrol 2.25 μM + curcumin C3 7 nM, FIG. 4): 42.76
- decrease in concentration that would still have a synergistic effect in combination ([4]; relative to 2.25 μM resveratrol / 7 nM curcumin C3): 43%
